Type in all cases: biochemical
One test concerns the target MNK2 (Homo sapiens, UniProt Q9HBH9). The experiment in a line: Dundee protein kinase screen. Conditions: MNK2, 1µM; read-out: %Remaining activity at 1µM NU6300. The protocol: (§1) Prior to determining its cellular activity, we carried out a screen to assess its selectivity against a panel of 131 protein kinases under conditions that would not distinguish between a reversible or irreversible mode of action. […] These 13 kinases and 29 additional kinases, selected for their known sensitivity to other inhibitors within the purine series, were then tested in a modified screening format in which the assay was repeated following a 4-hr pre-incubation (Table S3B). […] However, conformational flexibility around the active site may promote such an interaction with a residue from another part of the structure ([Martin et al., 2012]).
(§2) Table S3, Related to Figure 4. NCL-0006300 protein kinase selectivity. (A) NU6300 was tested at a single concentration of 1µM against 131 protein kinases present in a Dundee protein kinase screen (Bain et al., 2007). Values given are % activity remaining and are the average of duplicate measurements: 0-25% (red), 26-50% (yellow), 51-80% […]
(§3) (black) and above 81% (green). […]

The target in the next test is MPSK1 (Homo sapiens, UniProt O75716). The experiment in a line: Dundee protein kinase screen. Conditions: MPSK1, 1µM; read-out: %Remaining activity at 1µM NU6300. The protocol: as §1, §2, §3
Sequence of MPSK1 (O75716 whole entry): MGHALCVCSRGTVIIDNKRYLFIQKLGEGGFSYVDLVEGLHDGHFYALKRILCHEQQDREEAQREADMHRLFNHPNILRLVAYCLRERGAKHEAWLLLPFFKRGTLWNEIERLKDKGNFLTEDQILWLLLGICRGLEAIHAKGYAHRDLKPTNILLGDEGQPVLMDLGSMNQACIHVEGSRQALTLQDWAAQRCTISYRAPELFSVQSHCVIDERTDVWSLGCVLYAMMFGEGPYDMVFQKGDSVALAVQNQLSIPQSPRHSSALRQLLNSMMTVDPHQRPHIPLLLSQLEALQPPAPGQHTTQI
The target of a further test is NEK2a (Homo sapiens, UniProt P51955). Kind of test: Dundee protein kinase screen. Conditions: read-out: %Remaining activity at 1µM NU6300. The method, then:
as §1, §2, §3

A further test addresses T1, PDK1 (Homo sapiens, UniProt O15530).
T1 sequence (O15530 1-556): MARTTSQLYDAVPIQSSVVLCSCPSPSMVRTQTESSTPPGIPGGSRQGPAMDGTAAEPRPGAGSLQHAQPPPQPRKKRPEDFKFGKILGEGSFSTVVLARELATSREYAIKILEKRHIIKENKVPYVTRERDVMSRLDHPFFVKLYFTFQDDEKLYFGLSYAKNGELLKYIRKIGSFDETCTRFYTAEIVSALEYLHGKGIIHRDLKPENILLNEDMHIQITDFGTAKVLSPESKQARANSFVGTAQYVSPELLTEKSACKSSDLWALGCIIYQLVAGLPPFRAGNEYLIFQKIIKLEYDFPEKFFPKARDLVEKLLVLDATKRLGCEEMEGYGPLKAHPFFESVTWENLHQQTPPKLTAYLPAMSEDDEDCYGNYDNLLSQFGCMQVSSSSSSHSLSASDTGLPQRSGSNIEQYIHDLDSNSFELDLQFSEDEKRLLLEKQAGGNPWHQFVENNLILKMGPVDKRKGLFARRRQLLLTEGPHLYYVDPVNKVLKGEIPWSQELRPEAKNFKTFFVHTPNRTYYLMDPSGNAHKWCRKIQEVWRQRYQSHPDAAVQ
The experiment in a line: Dundee protein kinase screen. Conditions: PDK1, 1µM; read-out: %Remaining activity at 1µM NU6300. The protocol:
as §1, §2, §3

The target of the next test is PIM2 (Homo sapiens, UniProt Q9P1W9). Kind of test: Dundee protein kinase screen. Conditions: PIM2, 1µM; read-out: %Remaining activity at 1µM NU6300. The protocol:
as §1, §2, §3

For the next test, the target named is PKBα (Homo sapiens, UniProt P31749). The experiment in a line: Dundee protein kinase screen. Conditions: read-out: %Remaining activity at 1µM NU6300. The method, then: as §1, §2, §3
The target of another test is PKCγ (Homo sapiens, UniProt P05129). The experiment in a line: Dundee protein kinase screen. Conditions: read-out: %Remaining activity at 1µM NU6300. The protocol:
as §1, §2, §3

The next test deals with PKD1 (Homo sapiens, UniProt Q15139). Kind of test: Dundee protein kinase screen. The settings on record: PKD1, 1µM; read-out: %Remaining activity at 1µM NU6300. The method, then: as §1, §2, §3
A further test has as its target PLK1 (Homo sapiens, UniProt P53350). The experiment in a line: Dundee protein kinase screen. Conditions: PLK1, 1µM; read-out: %Remaining activity at 1µM NU6300. The method, then: as §1, §2, §3
A further test deals with RSK2 (Homo sapiens, UniProt P51812). Kind of test: Dundee protein kinase screen. Conditions: RSK2, 1µM; read-out: %Remaining activity at 1µM NU6300. The method, then:
as §1, §2, §3

A further test has as its target SRPK1 (Homo sapiens, UniProt Q96SB4). The experiment in a line: Dundee protein kinase screen. The settings on record: SRPK1, 1µM; read-out: %Remaining activity at 1µM NU6300. The method, then: as §1, §2, §3
The target in another test is STK33 (Homo sapiens, UniProt Q9BYT3). The experiment in a line: Dundee protein kinase screen. Conditions: STK33, 1µM; read-out: %Remaining activity at 1µM NU6300. The method, then:
as §1, §2, §3

Another test addresses SYK (Homo sapiens, UniProt P43405). Kind of test: Dundee protein kinase screen. The settings on record: read-out: %Remaining activity at 1µM NU6300. The method, then:
as §1, §2, §3

For the next test, the target named is Src (Homo sapiens, UniProt P12931). Kind of test: Dundee protein kinase screen. The settings on record: read-out: %Remaining activity at 1µM NU6300. The protocol: as §1, §2, §3
Sequence of Src (P12931 whole entry): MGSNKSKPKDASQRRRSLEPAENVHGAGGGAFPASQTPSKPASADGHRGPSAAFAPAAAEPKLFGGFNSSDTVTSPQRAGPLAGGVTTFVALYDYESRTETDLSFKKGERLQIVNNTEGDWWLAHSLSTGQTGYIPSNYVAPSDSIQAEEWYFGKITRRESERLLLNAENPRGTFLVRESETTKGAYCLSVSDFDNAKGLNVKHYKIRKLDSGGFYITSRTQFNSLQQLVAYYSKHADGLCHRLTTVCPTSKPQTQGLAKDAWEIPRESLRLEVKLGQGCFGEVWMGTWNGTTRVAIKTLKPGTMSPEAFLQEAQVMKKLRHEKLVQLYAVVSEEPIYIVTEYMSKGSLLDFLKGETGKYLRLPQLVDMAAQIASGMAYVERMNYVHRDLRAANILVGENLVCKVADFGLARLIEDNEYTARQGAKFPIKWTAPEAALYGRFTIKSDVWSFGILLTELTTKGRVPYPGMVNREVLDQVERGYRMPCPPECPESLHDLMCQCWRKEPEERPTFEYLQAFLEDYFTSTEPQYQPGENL
A further test has as its target TESK1 (Homo sapiens, UniProt Q15569). Kind of test: Dundee protein kinase screen. The settings on record: TESK1, 1µM; read-out: %Remaining activity at 1µM NU6300. The protocol: as §1, §2, §3
In a further test the target is TLK1 (Homo sapiens, UniProt Q9UKI8). The experiment in a line: Dundee protein kinase screen. Conditions: TLK1, 1µM; read-out: %Remaining activity at 1µM NU6300. The method, then:
as §1, §2, §3

The next test has as its target YES1 (Homo sapiens, UniProt P07947). The experiment in a line: Dundee protein kinase screen. Conditions: YES1, 1µM; read-out: %Remaining activity at 1µM NU6300. The protocol: as §1, §2, §3
Another test deals with p38β MAPK (Homo sapiens, UniProt Q15759). Kind of test: Dundee protein kinase screen. The settings on record: read-out: %Remaining activity at 1µM NU6300. The protocol: as §1, §2, §3
A further test has as its system GCK (MAP4K3). Kind of test: Dundee kinase screen re-test (standard format and 4 hour pre-incubation). The method, then: as §1
Table S3, Related to Figure 4. NCL-0006300 protein kinase selectivity. […]
(B) Selected kinases were re-tested in the Dundee kinase screen against NU6300 at a single concentration of 0.5 µM both in the standard assay format and following a 4 hour pre-incubation in the presence of NU6300. Kinases which have very low activity after the 4 hour incubation so that results might not be wholly reliable are boxed in salmon. Kinases where the activity after a 4 hour pre-incubation is < 50% that in the standard assay format are highlighted in red.

For the next test, the target named is CDK2 (Homo sapiens, UniProt P24941). Kind of test: CDK2 kinase inhibition assay. The settings on record: read-out: CDK2 median inhibitory concentration [IC50]. The method, then:
CDK2/cyclin A kinase assays were carried out using a method modified from [Brown et al. (1999)] or by using the ADP-Glo assay (Promega) essentially as described by the manufacturers. A full description of the assay formats is provided in the Supplemental Experimental Procedures.

Bounds are passed on as bounds.

Sequence of TLK1 (Q9UKI8 whole entry): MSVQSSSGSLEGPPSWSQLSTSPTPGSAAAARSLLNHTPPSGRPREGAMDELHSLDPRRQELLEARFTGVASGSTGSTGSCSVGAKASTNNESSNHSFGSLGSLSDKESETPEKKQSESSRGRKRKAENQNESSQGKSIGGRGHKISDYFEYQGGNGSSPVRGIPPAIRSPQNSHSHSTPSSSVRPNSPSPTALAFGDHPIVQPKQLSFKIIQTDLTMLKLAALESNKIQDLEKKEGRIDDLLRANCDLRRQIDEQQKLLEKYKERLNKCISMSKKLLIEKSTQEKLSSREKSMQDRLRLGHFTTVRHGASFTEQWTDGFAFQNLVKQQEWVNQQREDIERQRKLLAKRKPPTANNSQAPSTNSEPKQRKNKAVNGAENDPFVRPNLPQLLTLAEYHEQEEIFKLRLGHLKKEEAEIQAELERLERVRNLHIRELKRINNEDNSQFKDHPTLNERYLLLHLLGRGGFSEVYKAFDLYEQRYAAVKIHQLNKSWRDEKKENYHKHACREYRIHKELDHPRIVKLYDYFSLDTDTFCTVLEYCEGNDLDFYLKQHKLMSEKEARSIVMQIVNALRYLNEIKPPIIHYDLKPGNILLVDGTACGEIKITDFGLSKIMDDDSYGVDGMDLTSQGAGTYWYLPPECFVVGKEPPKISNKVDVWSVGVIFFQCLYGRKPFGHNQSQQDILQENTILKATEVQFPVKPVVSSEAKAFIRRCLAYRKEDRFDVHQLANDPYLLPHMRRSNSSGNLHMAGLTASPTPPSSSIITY
Sequence of SRPK1 (Q96SB4 whole entry): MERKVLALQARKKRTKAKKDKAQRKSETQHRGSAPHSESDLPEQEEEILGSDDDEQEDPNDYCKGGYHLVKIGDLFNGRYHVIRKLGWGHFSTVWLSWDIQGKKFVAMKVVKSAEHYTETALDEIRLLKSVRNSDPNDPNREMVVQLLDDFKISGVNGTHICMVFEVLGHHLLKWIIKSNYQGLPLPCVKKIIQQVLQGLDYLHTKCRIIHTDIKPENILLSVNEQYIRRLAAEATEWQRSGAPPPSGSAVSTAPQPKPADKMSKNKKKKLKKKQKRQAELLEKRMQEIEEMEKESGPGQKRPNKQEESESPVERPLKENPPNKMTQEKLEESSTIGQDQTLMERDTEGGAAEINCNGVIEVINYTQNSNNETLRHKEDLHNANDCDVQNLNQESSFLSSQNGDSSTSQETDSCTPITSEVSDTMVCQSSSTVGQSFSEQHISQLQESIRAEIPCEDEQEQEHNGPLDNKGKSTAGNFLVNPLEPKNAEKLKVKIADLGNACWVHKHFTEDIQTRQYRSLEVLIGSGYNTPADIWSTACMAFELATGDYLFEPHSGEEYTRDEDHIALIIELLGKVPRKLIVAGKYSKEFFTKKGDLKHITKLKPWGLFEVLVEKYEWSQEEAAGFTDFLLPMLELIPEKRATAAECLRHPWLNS
Sequence of PLK1 (P53350 whole entry): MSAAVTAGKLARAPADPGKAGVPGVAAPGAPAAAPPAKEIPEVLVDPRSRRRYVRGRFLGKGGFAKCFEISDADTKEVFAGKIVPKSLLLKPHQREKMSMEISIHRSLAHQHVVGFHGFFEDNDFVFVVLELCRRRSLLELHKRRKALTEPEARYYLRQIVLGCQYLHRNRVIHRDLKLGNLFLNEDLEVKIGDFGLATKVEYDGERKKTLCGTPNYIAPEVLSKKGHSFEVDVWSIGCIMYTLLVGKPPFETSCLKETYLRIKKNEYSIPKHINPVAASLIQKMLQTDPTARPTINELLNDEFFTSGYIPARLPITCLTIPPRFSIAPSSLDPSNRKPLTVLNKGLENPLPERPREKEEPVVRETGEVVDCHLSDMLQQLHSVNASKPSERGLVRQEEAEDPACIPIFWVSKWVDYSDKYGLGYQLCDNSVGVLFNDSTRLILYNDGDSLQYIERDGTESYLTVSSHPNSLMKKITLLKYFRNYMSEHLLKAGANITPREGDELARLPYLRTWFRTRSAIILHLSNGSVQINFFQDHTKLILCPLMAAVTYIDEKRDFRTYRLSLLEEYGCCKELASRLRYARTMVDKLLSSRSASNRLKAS
Sequence of MNK2 (Q9HBH9 whole entry): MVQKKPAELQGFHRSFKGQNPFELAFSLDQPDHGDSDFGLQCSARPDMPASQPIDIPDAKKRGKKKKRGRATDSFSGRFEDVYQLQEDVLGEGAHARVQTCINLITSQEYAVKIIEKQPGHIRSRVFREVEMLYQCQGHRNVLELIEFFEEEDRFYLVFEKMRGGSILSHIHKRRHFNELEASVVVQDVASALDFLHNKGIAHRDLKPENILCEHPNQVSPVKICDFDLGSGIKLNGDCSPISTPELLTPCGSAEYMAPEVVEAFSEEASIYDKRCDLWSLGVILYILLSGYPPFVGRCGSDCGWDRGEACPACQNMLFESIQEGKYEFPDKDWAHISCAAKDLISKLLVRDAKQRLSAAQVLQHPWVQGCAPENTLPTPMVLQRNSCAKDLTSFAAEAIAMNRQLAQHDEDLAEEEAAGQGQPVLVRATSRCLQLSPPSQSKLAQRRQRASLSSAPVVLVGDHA
Sequence of RSK2 (P51812 whole entry): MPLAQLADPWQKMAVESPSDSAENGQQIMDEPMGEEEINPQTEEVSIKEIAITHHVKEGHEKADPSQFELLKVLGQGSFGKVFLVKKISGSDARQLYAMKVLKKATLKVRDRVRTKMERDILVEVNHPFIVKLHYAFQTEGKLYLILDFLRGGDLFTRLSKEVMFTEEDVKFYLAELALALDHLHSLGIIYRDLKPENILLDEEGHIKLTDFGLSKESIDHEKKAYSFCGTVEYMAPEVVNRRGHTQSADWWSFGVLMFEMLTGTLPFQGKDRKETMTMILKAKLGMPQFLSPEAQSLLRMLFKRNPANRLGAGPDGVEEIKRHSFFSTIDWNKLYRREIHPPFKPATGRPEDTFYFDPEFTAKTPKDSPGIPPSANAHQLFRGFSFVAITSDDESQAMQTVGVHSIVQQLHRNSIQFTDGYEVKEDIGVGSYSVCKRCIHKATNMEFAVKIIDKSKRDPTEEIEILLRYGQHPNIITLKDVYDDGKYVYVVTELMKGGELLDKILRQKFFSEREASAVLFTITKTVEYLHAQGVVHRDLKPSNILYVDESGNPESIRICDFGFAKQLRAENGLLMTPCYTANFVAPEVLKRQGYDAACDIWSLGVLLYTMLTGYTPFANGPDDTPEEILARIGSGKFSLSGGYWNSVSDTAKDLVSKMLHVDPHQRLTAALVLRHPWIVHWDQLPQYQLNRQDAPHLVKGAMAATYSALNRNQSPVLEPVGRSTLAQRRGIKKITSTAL

For the molecule `C=CS(=O)(=O)c1ccc(Nc2nc(OCC3CCCCC3)c3nc[nH]c3n2)cc1` [NU6300, 6-(cyclohexylmethoxy)-N-(4-(vinylsulfonyl)phenyl)-9H-purin-2-amine], the remaining activity at 1 µM at MNK2 was 91%; at MPSK1, 92%; on NEK2a, 55%; on PDK1, 29%; on PIM2, 96%; on PKBα, 101%. Further, the remaining activity at 1 µM at PKCγ was found to be 104%; at PKD1, 55%; at PLK1 it was 90%; on RSK2, 54%; at SRPK1 it was 71%; on STK33, 59%. For the same molecule, the remaining activity at 1 µM at SYK came out at 58%; on Src, 39%; on TESK1 it was 78%; on TLK1 it was 52%; at YES1 it was 17%; at p38β MAPK, 67%. The “%Remaining activity at 0.5µM NU6300 - 4hr RT preincubation” value in the test with GCK (MAP4K3) (0.5µM, 4hr RT preincubation) was 29%. Moreover, in the test with GCK (MAP4K3) (0.5µM, usual format), the “%Remaining activity at 0.5µM NU6300 - Usual assay format” value is listed as 89%. Also, in the test with GCK (MAP4K3) (4-hr pre-incubation vs usual format, 0.5 µM), the “additional loss of activity after pre-incubation” value is given as more than 50%.
On to `CCS(=O)(=O)c1ccc(Nc2nc(OCC3CCCCC3)c3nc[nH]c3n2)cc1` [NU6310, 6-(cyclohexylmethoxy)-N-(4-(ethylsulfonyl)phenyl)-9H-purin-2-amine], for which the IC50 on CDK2 is 160 nM.

These data come from publication PMC4579270, “Identification and Characterization of an Irreversible Inhibitor of CDK2” (Chemistry & Biology, 2015).
